Results as given in publication PMC6791878, “Evaluation of integrin αvβ6 cystine knot PET tracers to detect cancer and idiopathic pulmonary fibrosis” (Nature Communications, 2019).
Where “and” joins values, the source holds several entries; their conditions need not be identical. Equal values may be shown once. Read-outs that look alike come from different tables or passages of the source.

Experiments:
human integrin αvβ6 [1] = target: T1, human integrin αvβ6 (Homo sapiens, UniProt P06756+P18564, DEL708-788); assay: Competition binding (IC50) against yeast surface-displayed R01-MG; details: for binding affinity for integrin avb6 in competition binding (IC50), in words: compete with R01-MG displayed on yeast
T1 construct: purchased R&D Systems
T1 sequence (P06756 31-992 limits assumed, stated change not applied): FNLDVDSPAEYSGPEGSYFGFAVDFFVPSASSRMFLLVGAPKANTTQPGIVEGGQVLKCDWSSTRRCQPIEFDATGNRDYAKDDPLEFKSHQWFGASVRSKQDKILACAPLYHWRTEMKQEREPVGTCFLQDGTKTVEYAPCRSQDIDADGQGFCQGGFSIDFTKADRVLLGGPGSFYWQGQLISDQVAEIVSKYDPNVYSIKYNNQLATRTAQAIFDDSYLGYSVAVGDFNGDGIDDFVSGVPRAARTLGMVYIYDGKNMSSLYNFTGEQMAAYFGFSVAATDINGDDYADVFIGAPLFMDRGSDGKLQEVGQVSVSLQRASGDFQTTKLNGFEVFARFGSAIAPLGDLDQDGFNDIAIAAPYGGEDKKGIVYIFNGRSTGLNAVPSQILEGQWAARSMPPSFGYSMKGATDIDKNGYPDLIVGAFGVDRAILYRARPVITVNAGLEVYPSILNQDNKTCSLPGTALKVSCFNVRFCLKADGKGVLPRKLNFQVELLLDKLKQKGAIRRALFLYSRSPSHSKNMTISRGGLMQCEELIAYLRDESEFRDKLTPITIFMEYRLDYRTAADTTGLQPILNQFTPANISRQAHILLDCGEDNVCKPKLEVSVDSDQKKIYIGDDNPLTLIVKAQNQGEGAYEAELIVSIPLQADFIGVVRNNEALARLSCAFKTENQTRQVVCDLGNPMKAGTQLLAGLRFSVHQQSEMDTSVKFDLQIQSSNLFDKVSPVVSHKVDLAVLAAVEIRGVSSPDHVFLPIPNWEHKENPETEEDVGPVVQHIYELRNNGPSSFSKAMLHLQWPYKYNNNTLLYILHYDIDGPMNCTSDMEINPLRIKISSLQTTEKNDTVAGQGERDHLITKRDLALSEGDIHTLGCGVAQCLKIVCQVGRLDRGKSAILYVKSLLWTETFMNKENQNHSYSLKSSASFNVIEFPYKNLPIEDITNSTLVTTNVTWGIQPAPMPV
T1 sequence (P18564 22-707 limits assumed, stated change not applied): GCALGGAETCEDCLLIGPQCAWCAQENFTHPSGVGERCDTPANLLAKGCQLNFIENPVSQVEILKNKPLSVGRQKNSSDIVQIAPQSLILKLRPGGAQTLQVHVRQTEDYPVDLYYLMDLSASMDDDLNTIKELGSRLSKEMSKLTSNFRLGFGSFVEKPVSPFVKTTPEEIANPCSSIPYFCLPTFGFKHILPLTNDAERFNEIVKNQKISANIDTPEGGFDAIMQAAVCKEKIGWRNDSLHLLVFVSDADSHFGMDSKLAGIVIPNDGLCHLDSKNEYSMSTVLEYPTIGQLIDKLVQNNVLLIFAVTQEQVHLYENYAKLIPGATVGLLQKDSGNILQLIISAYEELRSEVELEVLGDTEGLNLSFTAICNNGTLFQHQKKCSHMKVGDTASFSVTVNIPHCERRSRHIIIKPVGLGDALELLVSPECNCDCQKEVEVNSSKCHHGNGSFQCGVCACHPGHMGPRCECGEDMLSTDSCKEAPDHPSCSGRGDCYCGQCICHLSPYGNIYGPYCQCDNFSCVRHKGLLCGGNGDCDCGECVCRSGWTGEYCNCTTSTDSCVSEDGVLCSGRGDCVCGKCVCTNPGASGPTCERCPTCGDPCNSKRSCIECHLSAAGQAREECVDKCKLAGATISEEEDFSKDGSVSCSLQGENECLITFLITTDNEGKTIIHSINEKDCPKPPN

Sprague Dawley rats = format: in vivo, rat
Procedure: Groups of 5 animals sex^−1 were sacrificed on Study Days 3 (48 h) and 15 for evaluation of clinical pathology and organ toxicity. […] Parameters evaluated for test article effect included survival, clinical observations, body weight, body weight gain, clinical pathology, gross pathology, organ weights, and microscopic pathology.
The purpose of this study was to evaluate the toxicity of [19F]FP-R 1-MG-F2 following a single […]
intra ven ous dose in rats. This study consisted of one test article treatment group of ten male and ten fem ale Spr ague-Dawley rats dosed with [19F]FP-R 1-MG-F2 (note - sm all m olecule […]
[…] An additio na l grou p of ten m ales and ten females received the vehicle, 10% Ethanol in Sterile Saline, and ser ved as the control. All rats received a dose volum e of 5 m L/k g. T he rats were dosed intravenous ly onc e on Stud y Da y 1.
Five m ale and five fem ale rats from each group were bled on Stud y Da y 3 and the rem aining rats were bled on Stud y D ay 15. All an im als were e u than ized a nd necrops ied f ollo wing b loo d collect ion . Param eters evalu ated f or test art icle ef f ect inclu ded sur viva l, clin ica l obser vat ions, bod y weight, bod y weight gain, clinical patholog y, gross pathology, organ weights, and […]
the study. No abnorm al findings were indicated dur ing mortality checks (cagesides) or hands-on […]
be related to treatm ent related.
Under the conditions of this study, there were no treatm ent related findings in Sprague Dawley rats three or fifteen da ys after a single intravenous dose of [19F]FP-R01-MG-F2 at 1.10 mg/kg. […]
intravenous dose in rats. […]
The test article (TA), [19F]FP-R 1-MG-F2, was received from the Sponsor on Aug ust 25, […]
2014, described as a wh ite po wd er . The test article was stored frozen in a g lass vial.
Copies of the Test Artic le Data Sheets are included in Appendix D.
Note: Test article nam e as per the Qualit y Control Record (Appendix D) is listed as FP-GLY-36-Gly-NH2, which represents the chem ical structure. T he test article is referred to b y the comm ercial nam e provided b y the client ([19F]FP-R 1-MG-F2) throughout this report and […]
Name Lot No. Supplier Purit y
The vehicle used in this study was 10% Ethanol in Sterile Saline (0.9% sodium chloride, USP). The vehic le com ponents were purchased commercially b y SoBran and stored at room tem perature in accordance with the m anufacturer instructions. Copies of the Certificate of Anal yses for the lots of 10% Ethanol and Sterile Saline used are included in […]
Name Lot No. Supplier Concentration
Etha no l (20 0 pro of ), USP SHBB0 212 V Sigm a Aldrich; Sa int 99.87% […]
0.9% Sod ium Chlor ide, USP C886374 Baxter; C le ve lan d, 0.888% […]
The 0.22 mg/mL test article solution was pr epar ed b y adding 40 mL of 10% ethanol solution (vehicle control) to 8.8 mg of the test article, mixed gently, and then filtered using a 2µ sterile syringe filter. The pH of the 10% ethanol solution wa s adj us ted us ing HCl and NaO H to achieve a pH of 7.4. The vehicle was passed through a 2µ sterile syringe filter af t er pH […]
On October 2, 2014, 21 male and 21 female Sprague-Dawle y rats were obtained from Harlan, Frederick , MD. The supplier verified that the anim als were free of specific active inf ectious dise ases prior to arriva l at the SoBra n f acilit y. At init iat ion of dosing , the m ale and fem ale rats were 7 week s of age, (Date of Birth: 8/15/14). At ra ndom iza tion th e bod y weights of the rats used on stud y ranged from 199.05 to 218.61 gram s (m ales) […]
Rats were chosen for use in this stud y since the y are considered an acceptable anim al model for the rodent species for acute toxicity tests prior to clinical use.
The animals were housed following the specifications recommended in The Guide for the […]

human integrin αvβ6 [2] = target: T1, human integrin αvβ6; assay: Equilibrium binding of yeast-displayed knottins to soluble integrin αvβ6 (two-colour flow cytometry, KD); details: KD, equilibrium binding, knottin expressed on yeast surface vs soluble human integrin αvβ6; ± S.D., three replicates on separate days
[3] = Day 3, Group 2 males, p < 0.05, within historical range

Structure (SMILES): CC[C@H](C)[C@@H]1NC(=O)[C@@H](NC(=O)CNC(=O)C(C)F)CSSC[C@@H]2NC(=O)[C@H](C)NC(=O)CNC(=O)[C@@H]3CCCN3C(=O)[C@@H]3CSSC[C@@H](C(=O)NCC(N)=O)NC(=O)[C@H](Cc4ccc(O)cc4)NC(=O)CNC(=O)[C@H](CC(N)=O)NC(=O)CNC(=O)[C@H](CCCNC(=N)N)NC(=O)[C@H](CSSC[C@H](NC(=O)[C@H](CCCNC(=N)N)NC(=O)[C@H](Cc4ccccc4)NC(=O)[C@H](CC(C)C)NC(=O)[C@H](CC(C)C)NC(=O)[C@H]([C@@H](C)O)NC(=O)CNC(=O)[C@H](CC(C)C)NC(=O)[C@H](CC(=O)O)NC(=O)[C@H]([C@@H](C)O)NC(=O)[C@H](CCCNC(=N)N)NC(=O)CNC(=O)[C@H](CC(N)=O)NC(=O)[C@H](CC(C)C)NC1=O)C(=O)N[C@@H](CCCNC(=N)N)C(=O)N[C@@H](CCCNC(=N)N)C(=O)N[C@@H](CC(=O)O)C(=O)N[C@@H](CO)C(=O)N[C@@H](CC(=O)O)C(=O)N3)NC(=O)[C@H]([C@@H](C)CC)NC2=O (stereo partly drawn) [[^19F]FP-R01-MG-F1]
- binding affinity for integrin avb6 in competition binding (IC50), in words (human integrin αvβ6 [1]): subnanomolar

Structure (SMILES): CC[C@H](C)[C@@H]1NC(=O)[C@@H](NC(=O)CNC(=O)[C@@H](C)F)CSSC[C@@H]2NC(=O)[C@H](C)NC(=O)CNC(=O)[C@@H]3CCCN3C(=O)[C@@H]3CSSC[C@@H](C(=O)NCC(N)=O)NC(=O)[C@H](Cc4ccc(O)cc4)NC(=O)CNC(=O)[C@H](CC(N)=O)NC(=O)CNC(=O)[C@H](CCCNC(=N)N)NC(=O)[C@H](CSSC[C@H](NC(=O)[C@H](CCCNC(=N)N)NC(=O)[C@H](Cc4ccccc4)NC(=O)[C@H](CC(C)C)NC(=O)[C@H](CC(C)C)NC(=O)[C@H]([C@@H](C)O)NC(=O)CNC(=O)[C@H](CC(C)C)NC(=O)[C@H](CC(=O)O)NC(=O)[C@H]([C@@H](C)O)NC(=O)[C@H](CCCNC(=N)N)NC(=O)CNC(=O)[C@H](CC(N)=O)NC(=O)[C@H](CC(C)C)NC1=O)C(=O)N[C@@H](CCCNC(=N)N)C(=O)N[C@@H](CCCNC(=N)N)C(=O)N[C@@H](CC(=O)O)C(=O)N[C@@H](CO)C(=O)N[C@@H](CC(=O)O)C(=O)N3)NC(=O)[C@H]([C@@H](C)CC)NC2=O [[^19F]FP-R01-MG-F2]
- IC50 (human integrin αvβ6 [1]): 0.56 ± 0.46 nM
- binding affinity for integrin avb6 in competition binding (IC50), in words (human integrin αvβ6 [1]): subnanomolar
- Organ weight, Brain, mean (Sprague Dawley rats; Day 3, Group 2 females): 1.5766
- Organ weight, Eyes with optic nerve, mean (Sprague Dawley rats; Day 3, Group 2 females): 0.2641
- Organ weight, Heart, mean (Sprague Dawley rats; Day 3, Group 2 females): 0.6540
- Organ weight, Kidneys, mean (Sprague Dawley rats; Day 3, Group 2 females): 1.2874
- Organ weight, Liver, mean (Sprague Dawley rats; Day 3, Group 2 females): 5.9521
- Organ weight, Lungs, mean (Sprague Dawley rats; Day 3, Group 2 females): 1.5304
- Organ weight, Ovaries, mean (Sprague Dawley rats; Day 3, Group 2 females): 0.1595
- Organ weight, Spleen, mean (Sprague Dawley rats; Day 3, Group 2 females): 0.4955
- Organ weight, Thyroid (both lobes with parathyroid), mean (Sprague Dawley rats; Day 3, Group 2 females): 0.0479
- Organ weight, Brain, mean (Sprague Dawley rats; Day 3, Group 2 males): 1.7081
- Organ weight, Eyes with optic nerve, mean (Sprague Dawley rats; Day 3, Group 2 males): 0.3216
- Organ weight, Heart, mean (Sprague Dawley rats; Day 3, Group 2 males): 0.9438
- Organ weight, Kidneys, mean (Sprague Dawley rats; Day 3, Group 2 males): 1.7156
- Organ weight, Liver, mean (Sprague Dawley rats; Day 3, Group 2 males): 8.4988
- Organ weight, Lungs, mean (Sprague Dawley rats; Day 3, Group 2 males): 1.6368
- Organ weight, Spleen, mean (Sprague Dawley rats; Day 3, Group 2 males): 0.6601
- Organ weight, Testes, mean (Sprague Dawley rats; Day 3, Group 2 males): 2.9952
- Organ weight, Thyroid (both lobes with parathyroid), mean (Sprague Dawley rats; Day 3, Group 2 males): 0.0299
- alkaline phosphatase (ALP) vs control (Sprague Dawley rats; Day 3, Group 2 males, p < 0.05, not believed biologically meaningful): increase
- absolute large unstained cell counts (ALUC) vs control (Sprague Dawley rats; [3]): increased
- absolute lymphocyte counts (ALY) vs control (Sprague Dawley rats; [3]): increased
- absolute monocyte counts (AMO) vs control (Sprague Dawley rats; [3]): increased
- white blood cell counts (WBC) vs control (Sprague Dawley rats; [3]): increased
- Organ weight, Brain, mean (Sprague Dawley rats; Day 15, Group 2 females): 1.5915
- Organ weight, Eyes with optic nerve, mean (Sprague Dawley rats; Day 15, Group 2 females): 0.2965
- Organ weight, Heart, mean (Sprague Dawley rats; Day 15, Group 2 females): 0.7068
- Organ weight, Kidneys, mean (Sprague Dawley rats; Day 15, Group 2 females): 1.3894
- Organ weight, Liver, mean (Sprague Dawley rats; Day 15, Group 2 females): 7.3444
- Organ weight, Lungs, mean (Sprague Dawley rats; Day 15, Group 2 females): 1.5063
- Organ weight, Ovaries, mean (Sprague Dawley rats; Day 15, Group 2 females): 0.1569
- Organ weight, Spleen, mean (Sprague Dawley rats; Day 15, Group 2 females): 0.5718
- Organ weight, Thyroid (both lobes with parathyroid), mean (Sprague Dawley rats; Day 15, Group 2 females): 0.0355
- activated partial thromboplastin time vs control (Sprague Dawley rats; Day 15, Group 2 females, p < 0.05, within historical range): decrease
- Organ weight, Brain, mean (Sprague Dawley rats; Day 15, Group 2 males): 1.5942
- Organ weight, Eyes with optic nerve, mean (Sprague Dawley rats; Day 15, Group 2 males): 0.3204
- Organ weight, Heart, mean (Sprague Dawley rats; Day 15, Group 2 males): 1.0593
- Organ weight, Kidneys, mean (Sprague Dawley rats; Day 15, Group 2 males): 2.1137
- Organ weight, Liver, mean (Sprague Dawley rats; Day 15, Group 2 males): 11.2236
- Organ weight, Lungs, mean (Sprague Dawley rats; Day 15, Group 2 males): 2.0208
- Organ weight, Spleen, mean (Sprague Dawley rats; Day 15, Group 2 males): 0.6991
- Organ weight, Testes, mean (Sprague Dawley rats; Day 15, Group 2 males): 3.5798
- Organ weight, Thyroid (both lobes with parathyroid), mean (Sprague Dawley rats; Day 15, Group 2 males): 0.0238
- mean corpuscular hemoglobin (MCH) vs control (Sprague Dawley rats; Day 15, Group 2 males, p < 0.05, within historical range): increase
- alanine aminotransferase (ALT) vs control (Sprague Dawley rats; Days 3 and 15, Group 2 males, p < 0.05, not believed biologically meaningful): elevated
- organ weights and microscopic pathology findings (Sprague Dawley rats; […] single i.v.): No treatm ent-related findings
- bodyweights of treated females on Day 3 vs control (Sprague Dawley rats; p < 0.05, judged not treatment related): significant increase

Structure (SMILES): CC[C@H](C)[C@@H]1NC(=O)[C@@H](NC(=O)CN)CSSC[C@@H]2NC(=O)[C@H](C)NC(=O)CNC(=O)[C@@H]3CCCN3C(=O)[C@@H]3CSSC[C@@H](C(=O)NCC(N)=O)NC(=O)[C@H](Cc4ccc(O)cc4)NC(=O)CNC(=O)[C@H](CC(N)=O)NC(=O)CNC(=O)[C@H](CCCNC(=N)N)NC(=O)[C@H](CSSC[C@H](NC(=O)[C@H](CCCNC(=N)N)NC(=O)[C@H](Cc4ccccc4)NC(=O)[C@H](CC(C)C)NC(=O)[C@H](CC(C)C)NC(=O)[C@H]([C@@H](C)O)NC(=O)CNC(=O)[C@H](CC(C)C)NC(=O)[C@H](CC(=O)O)NC(=O)[C@H]([C@@H](C)O)NC(=O)[C@H](CCCNC(=N)N)NC(=O)CNC(=O)[C@H](CC(N)=O)NC(=O)[C@H](CC(C)C)NC1=O)C(=O)N[C@@H](CCCNC(=N)N)C(=O)N[C@@H](CCCNC(=N)N)C(=O)N[C@@H](CC(=O)O)C(=O)N[C@@H](CO)C(=O)N[C@@H](CC(=O)O)C(=O)N3)NC(=O)[C@H]([C@@H](C)CC)NC2=O [R01-MG]
- binding affinity for integrin avb6 in competition binding (IC50), in words (human integrin αvβ6 [1]): subnanomolar
- Kd (human integrin αvβ6 [2]): ~1 nM and 1.24 nM
